Measured values taken from patent US20120046353A1 (priority 2010, published 2012).

What follows are compounds tested against neuraminidase of Tamiflu-resistant novel influenza virus (point mutation H→Y) (Influenza A virus, UniProt C3W5S3, H275Y).
In the case of `COc1c(C)c(O)c(C)c(O)c1C(=O)/C=C/c1ccccc1` [Compound 5, 2′,4′-dihydroxy-6′-methoxy-3′,5′-dimethylchalcone], the “Inhibitory activity against neuraminidase of Tamiflu-resistant novel influenza virus, in words” value (“Inhibitory activity” for short) is reported as “excellent inhibitory activity”. With `COc1c(C)c(O)c(C)c(O)c1C(=O)/C=C/c1ccccc1O` [Compound 14, 2,2′,4′-trihydroxy-6′-methoxy-3′,5′-dimethylchalcone] the “Inhibitory activity” value was “excellent inhibitory activity”. With `COc1c(C)c(O)c(C)c(O)c1C(=O)/C=C/c1ccc(O)cc1` [Compound 4, 4,2′,4′-trihydroxy-6′-methoxy-3′,5′-dimethylchalcone] the “Inhibitory activity” value was “excellent inhibitory activity”. With `COc1cc(O)c(C)c(O)c1C(=O)/C=C/c1ccccc1` [Compound 8, 2′,4′-dihydroxy-3′-methyl-6′-methoxychalcone] the “Inhibitory activity” value was “excellent inhibitory activity”.
